Here are results for two compounds from paper PMC11597817, “Modulation of Multispecific Transporters by Uncaria tomentosa Extract and Its Major Phytoconstituents” (Pharmaceutics, 2024).

Common to all, as to assay type: cell-based
For series [1], the target named is T1, ENT1 (Homo sapiens, UniProt Q99808).
T1 construct: expressed in transfected cells; host or cells: MDCKII (lentiviral transduction; cDNA synthesised by GenScript)
T1 sequence (Q99808 1-456): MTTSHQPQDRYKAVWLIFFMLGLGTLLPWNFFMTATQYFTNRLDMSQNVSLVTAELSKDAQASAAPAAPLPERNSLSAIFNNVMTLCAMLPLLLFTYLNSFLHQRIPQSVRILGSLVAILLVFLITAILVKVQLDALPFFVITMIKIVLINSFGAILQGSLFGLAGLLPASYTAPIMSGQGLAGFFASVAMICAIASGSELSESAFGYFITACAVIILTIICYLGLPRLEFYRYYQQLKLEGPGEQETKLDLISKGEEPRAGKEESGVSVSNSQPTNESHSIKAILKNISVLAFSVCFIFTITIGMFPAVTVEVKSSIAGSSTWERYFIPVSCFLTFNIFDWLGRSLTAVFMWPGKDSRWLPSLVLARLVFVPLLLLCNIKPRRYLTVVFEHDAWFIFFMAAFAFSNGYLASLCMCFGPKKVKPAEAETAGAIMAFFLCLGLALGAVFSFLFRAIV
Description: Uptake inhibition assay, ENT1-overexpressing MDCKII cells. The conditions noted are these: for IC50: oxindole alkaloids, substrate uridine, read-out: IC50 (95% CI of IC50). The text has this: The human embryonic kidney 293 (HEK293) cell line was purchased from Invitrogen/ThermoFisher (Waltham, MA, USA). Madin–Darby canine kidney II (MDCKII) wild type cells were obtained from the European Collection of Authenticated Cell Cultures (ECACC catalog no. 00062107). HEK293 cells overexpressing the human uptake OATP1B1 (NCBI Reference Sequence: NM_006446.4), OATP1B3 (NM_019844), OATP2B1 (NM_007256), OATP1A2 (NM_134431), OAT1-3 (BC033682.1; NM_006672.3; BC022387), OCT1-3 (BC126364.1; NM_003058; NM_021977), OCTN1 (NM_003059.3), NTCP (NM_003049.3), MATE1 (NM_018242.3), MATE2K (NM_001099646.2), ENT4 (NM_001040661.1), SGLT2 (AJ133127.1), ASCT1/2 (NM_003038.5; NM_005628.3), LAT1/2 (NM_003486.6; NM_012244.4), and THTR1/2 (NM_006996; NM_025243) and mock and human efflux BCRP (NM_004827.2), BSEP (NM_003742.2), MDR1 (NM_000927.4), and MRP1-5 (NM_004996; NM_000392.4; BC137347.1; NM_005845.4; NM_005688.2) transporters as well as MDCKII overexpressing human ENT1/2 (NM_001078177; NM_001532.2) and URAT1 (BC053348) transporters were created by lentiviral transduction. The cDNA encoding respective transporters were synthetized and cloned by GenScript (Piscataway, NJ, USA). […]
(§1) Plated cells were preincubated with a transport buffer (HBSS) containing 30 or 150 µg/mL of UT extract or 100 µM of isopteropodine, mitraphylline, or uncarine D for 15 min at an appropriate temperature. […] For radiolabeled substrates, accumulation was measured by liquid scintillation counting (MicroBeta Scintillation Counter, PerkinElmer).
(§2) The transporter-mediated uptake and ATP-dependent transport were determined by subtracting the activity of the control cell/transporter abundant-membrane in the presence of AMP from the activity of the transporter-overexpressing cell/transporter-abundant membrane in the presence of ATP. The relative transporter-specific accumulation was expressed as the percent of DMSO activity. […] Confidence intervals (CIs) of 95% were also determined. […]

The target in series [2] is T2, OCTN1 (Homo sapiens, UniProt Q9H015).
T2 construct: expressed in transfected cells; host or cells: HEK293 (lentiviral transduction; cDNA synthesised by GenScript)
T2 sequence (Q9H015 whole entry): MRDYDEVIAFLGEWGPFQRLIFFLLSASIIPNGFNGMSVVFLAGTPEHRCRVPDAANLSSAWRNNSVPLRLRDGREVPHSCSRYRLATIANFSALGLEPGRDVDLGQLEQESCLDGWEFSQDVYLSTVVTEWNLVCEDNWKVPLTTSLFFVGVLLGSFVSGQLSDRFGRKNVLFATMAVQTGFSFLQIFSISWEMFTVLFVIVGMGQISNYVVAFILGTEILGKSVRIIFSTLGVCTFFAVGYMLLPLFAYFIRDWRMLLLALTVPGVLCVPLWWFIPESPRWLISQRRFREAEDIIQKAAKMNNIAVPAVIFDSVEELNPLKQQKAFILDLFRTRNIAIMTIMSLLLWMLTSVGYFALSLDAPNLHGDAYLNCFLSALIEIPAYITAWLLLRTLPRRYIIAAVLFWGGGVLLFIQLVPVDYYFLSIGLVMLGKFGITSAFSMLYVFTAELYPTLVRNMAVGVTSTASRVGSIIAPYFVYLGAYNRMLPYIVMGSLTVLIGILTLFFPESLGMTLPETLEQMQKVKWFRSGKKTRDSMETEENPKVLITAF
As to the kind of experiment: Uptake inhibition assay, OCTN1-overexpressing HEK293 cells. The settings on record: in the presence of the alkaloid (100 µM, Figure 3). The method, then: (§3) The human embryonic kidney 293 (HEK293) cell line was purchased from Invitrogen/ThermoFisher (Waltham, MA, USA). Madin–Darby canine kidney II (MDCKII) wild type cells were obtained from the European Collection of Authenticated Cell Cultures (ECACC catalog no. 00062107). […]
as §1, §2

Series [3] deals with T3, SGLT2 (Homo sapiens, UniProt P31639).
T3 construct: expressed in transfected cells; host or cells: HEK293 (lentiviral transduction; cDNA synthesised by GenScript)
T3 sequence (P31639 whole entry): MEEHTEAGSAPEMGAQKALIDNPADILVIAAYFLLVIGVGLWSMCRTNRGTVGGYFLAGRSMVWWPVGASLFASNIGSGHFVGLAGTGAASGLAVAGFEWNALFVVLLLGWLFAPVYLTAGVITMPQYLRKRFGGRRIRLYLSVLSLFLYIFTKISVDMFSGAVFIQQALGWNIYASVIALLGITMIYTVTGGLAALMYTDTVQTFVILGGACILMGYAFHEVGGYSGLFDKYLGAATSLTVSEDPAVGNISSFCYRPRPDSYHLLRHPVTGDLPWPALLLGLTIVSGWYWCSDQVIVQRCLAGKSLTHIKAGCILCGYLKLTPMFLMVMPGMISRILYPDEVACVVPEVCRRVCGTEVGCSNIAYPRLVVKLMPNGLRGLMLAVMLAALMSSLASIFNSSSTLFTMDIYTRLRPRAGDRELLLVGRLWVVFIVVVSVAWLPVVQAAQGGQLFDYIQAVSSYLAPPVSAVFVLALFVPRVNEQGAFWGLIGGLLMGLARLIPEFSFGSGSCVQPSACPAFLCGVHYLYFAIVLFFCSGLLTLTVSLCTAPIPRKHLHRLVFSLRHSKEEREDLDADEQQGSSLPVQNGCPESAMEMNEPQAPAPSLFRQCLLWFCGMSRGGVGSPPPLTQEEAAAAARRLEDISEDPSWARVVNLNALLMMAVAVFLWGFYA
Description: Uptake inhibition assay, SGLT2-overexpressing HEK293 cells. The method, then: as §3, §1, §2

In series [4] the target is T4, OAT1 (Homo sapiens, UniProt Q4U2R8).
T4 construct: expressed in transfected cells; host or cells: HEK293 (lentiviral transduction; cDNA synthesised by GenScript)
T4 sequence (Q4U2R8 whole entry): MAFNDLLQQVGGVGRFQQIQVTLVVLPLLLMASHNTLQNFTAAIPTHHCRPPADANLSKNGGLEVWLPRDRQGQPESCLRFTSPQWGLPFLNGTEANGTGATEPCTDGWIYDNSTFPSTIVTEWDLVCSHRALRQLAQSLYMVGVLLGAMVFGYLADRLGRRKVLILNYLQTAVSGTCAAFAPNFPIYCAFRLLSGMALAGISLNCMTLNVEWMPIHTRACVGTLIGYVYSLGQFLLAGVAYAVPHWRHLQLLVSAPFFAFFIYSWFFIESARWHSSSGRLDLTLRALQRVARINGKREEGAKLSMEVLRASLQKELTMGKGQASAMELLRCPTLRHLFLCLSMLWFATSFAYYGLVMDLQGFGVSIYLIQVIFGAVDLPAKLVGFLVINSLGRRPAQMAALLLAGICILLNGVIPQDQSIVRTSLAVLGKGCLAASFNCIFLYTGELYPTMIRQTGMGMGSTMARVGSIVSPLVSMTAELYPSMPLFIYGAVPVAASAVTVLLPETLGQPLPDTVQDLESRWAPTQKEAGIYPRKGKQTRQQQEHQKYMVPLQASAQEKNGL
As to the kind of experiment: Uptake inhibition assay, OAT1-overexpressing HEK293 cells. The conditions noted are these: at 100 µM. As to the method:
as §3, §1, §2

Series [5] concerns the target T5, OAT3 (Homo sapiens, UniProt Q8TCC7).
T5 construct: expressed in transfected cells; host or cells: HEK293 (lentiviral transduction; cDNA synthesised by GenScript)
As to the kind of experiment: Uptake inhibition assay, OAT3-overexpressing HEK293 cells. The settings on record: oxindole alkaloids, substrate E3S, read-out: IC50 (95% CI of IC50). As to the method:
as §3, §1, §2

Series [6] addresses T6, OAT2 (Homo sapiens, UniProt Q9Y694).
T6 construct: expressed in transfected cells; host or cells: HEK293 (lentiviral transduction; cDNA synthesised by GenScript)
As to the kind of experiment: Uptake inhibition assay, OAT2-overexpressing HEK293 cells. The conditions noted are these: at 100 µM. As to the method: as §3, §1, §2

The target of series [7] is T7, OCT2 (Homo sapiens, UniProt O15244).
T7 construct: expressed in transfected cells; host or cells: HEK293 (lentiviral transduction; cDNA synthesised by GenScript)
T7 sequence (O15244 whole entry): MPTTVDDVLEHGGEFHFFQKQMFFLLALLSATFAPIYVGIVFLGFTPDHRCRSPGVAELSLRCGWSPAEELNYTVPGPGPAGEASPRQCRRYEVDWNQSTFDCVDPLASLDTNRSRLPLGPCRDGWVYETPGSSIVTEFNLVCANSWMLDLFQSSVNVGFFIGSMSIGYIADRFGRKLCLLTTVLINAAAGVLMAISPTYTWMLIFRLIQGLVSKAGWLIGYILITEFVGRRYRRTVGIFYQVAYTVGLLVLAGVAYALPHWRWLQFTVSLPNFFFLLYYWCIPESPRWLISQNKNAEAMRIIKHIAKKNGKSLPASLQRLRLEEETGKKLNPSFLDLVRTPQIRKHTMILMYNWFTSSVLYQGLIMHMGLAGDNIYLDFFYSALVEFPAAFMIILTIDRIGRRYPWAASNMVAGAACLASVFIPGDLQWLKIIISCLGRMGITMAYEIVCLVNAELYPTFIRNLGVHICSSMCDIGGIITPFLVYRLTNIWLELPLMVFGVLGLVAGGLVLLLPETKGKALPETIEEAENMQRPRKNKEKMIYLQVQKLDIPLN
Description: Uptake inhibition assay, OCT2-overexpressing HEK293 cells. The settings on record: oxindole alkaloids; substrate metformin; read-out: IC50 (95% CI of IC50). The method, then: as §3, §1, §2

Like-named read-outs stand apart in the source and are kept apart here.

T5 sequence (Q8TCC7 whole entry): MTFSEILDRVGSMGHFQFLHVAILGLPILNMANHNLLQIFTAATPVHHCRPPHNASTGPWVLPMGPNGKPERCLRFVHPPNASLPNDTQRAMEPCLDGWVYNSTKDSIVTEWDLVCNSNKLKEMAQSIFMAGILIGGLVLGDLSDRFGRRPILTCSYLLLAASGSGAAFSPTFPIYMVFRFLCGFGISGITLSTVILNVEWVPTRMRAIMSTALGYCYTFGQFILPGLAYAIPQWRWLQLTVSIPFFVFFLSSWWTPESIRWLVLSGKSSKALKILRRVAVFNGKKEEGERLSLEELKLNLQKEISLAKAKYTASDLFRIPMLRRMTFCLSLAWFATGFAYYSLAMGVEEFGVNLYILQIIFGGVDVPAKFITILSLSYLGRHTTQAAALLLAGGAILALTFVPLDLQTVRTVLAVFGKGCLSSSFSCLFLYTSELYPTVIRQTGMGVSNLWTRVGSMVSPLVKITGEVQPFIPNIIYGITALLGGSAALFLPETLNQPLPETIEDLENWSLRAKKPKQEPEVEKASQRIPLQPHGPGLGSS
T6 sequence (Q9Y694 1-546 isoform Q9Y694-2): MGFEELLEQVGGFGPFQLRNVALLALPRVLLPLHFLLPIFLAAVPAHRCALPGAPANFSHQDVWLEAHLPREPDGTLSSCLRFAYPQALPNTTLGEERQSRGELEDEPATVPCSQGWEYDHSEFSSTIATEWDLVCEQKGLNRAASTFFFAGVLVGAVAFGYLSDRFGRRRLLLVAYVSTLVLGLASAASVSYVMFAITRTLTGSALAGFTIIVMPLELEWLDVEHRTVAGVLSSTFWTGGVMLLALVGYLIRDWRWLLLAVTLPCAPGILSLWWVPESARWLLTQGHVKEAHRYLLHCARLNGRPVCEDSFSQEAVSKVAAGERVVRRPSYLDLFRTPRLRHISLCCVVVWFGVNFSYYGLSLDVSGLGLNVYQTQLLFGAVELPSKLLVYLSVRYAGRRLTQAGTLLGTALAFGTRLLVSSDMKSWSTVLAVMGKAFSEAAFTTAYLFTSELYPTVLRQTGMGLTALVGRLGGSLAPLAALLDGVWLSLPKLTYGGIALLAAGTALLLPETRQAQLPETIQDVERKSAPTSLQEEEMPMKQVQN

With `COC(=O)C1=CO[C@@H](C)[C@H]2CN3CC[C@]4(C(=O)Nc5ccccc54)[C@@H]3C[C@H]12` [mitraphylline], the transporter-mediated substrate accumulation entry in series [1] (in the presence of the alkaloid (100 µM, Figure 3)) is on record as “below 50%”; in series [2], “below 50%”. The IC50 in series [1] (listed as Mitraphylline) and in series [1] was 49.6 µM in each case.
Take `COC(=O)C1=CO[C@@H](C)[C@@H]2CN3CC[C@@]4(C(=O)Nc5ccccc54)[C@@H]3C[C@H]12` [isopteropodine]: the “decrease of transporter-mediated transport” value in series [3] (at 100 µM), in series [4] and in series [6] was “around 50%” each time. The IC50 in series [3] (oxindole alkaloids, substrate AMG, read-out: IC50 (95% CI of IC50)) amounted to 72.7 µM; in series [5] (listed as Isopteropodine), 46.5 µM; in series [5], 46.5 µM; in series [7], 16.1 µM.

By IC50 is commonly meant the concentration that gives 50% inhibition.
